According to PubChem BioAssay AID248 (DTP/NCI, 2004):
Where “and” joins values, the source holds several entries; their conditions need not be identical. Equal entries are not always repeated. Toxic doses and inconclusive results are not listed. Cut-off read from the data, not from the text of the source: active = T/C of 150% or more; inactive = T/C below 125%.

Tested on: L1210 leukemia ip in BDF1 mice, survival T/C
Assay: NCI In Vivo Anticancer Drug Screen. Data for tumor model L1210 Leukemia (intraperitoneal) in B6D2F1 (BDF1) mice
Conditions: endpoint: mean survival time, higher = longer survival
Summary of the method: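 Tumor cells were implanted, animals were treated, and survival was followed. The result divides the treated measurement by the vehicle-control measurement.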

[1] = dose: 100.0 mg/kg/injection, schedule: Q01DX001 (ip), vehicle: Klucel (hydroxypropylcellulose) (HPC)
[2] = dose: 200.0 mg/kg/injection, schedule: Q01DX001 (ip), vehicle: Klucel (hydroxypropylcellulose) (HPC)
[3] = dose: 400.0 mg/kg/injection, schedule: Q01DX001 (ip), vehicle: Klucel (hydroxypropylcellulose) (HPC)
[4] = dose: 100.0 mg/kg/injection, schedule: Q01DX009 (ip), vehicle: Klucel (hydroxypropylcellulose) (HPC)
[5] = dose: 200.0 mg/kg/injection, schedule: Q01DX009 (ip), vehicle: Klucel (hydroxypropylcellulose) (HPC)
[6] = dose: 400.0 mg/kg/injection, schedule: Q01DX009 (ip), vehicle: Klucel (hydroxypropylcellulose) (HPC)
[7] = dose: 100.0 mg/kg/injection, schedule: Q04DX003 (ip), vehicle: Klucel (hydroxypropylcellulose) (HPC)
[8] = dose: 200.0 mg/kg/injection, schedule: Q04DX003 (ip), vehicle: Klucel (hydroxypropylcellulose) (HPC)
[9] = dose: 100.0 mg/kg/injection, schedule: Q01DX001 (ip), vehicle: saline
[10] = dose: 200.0 mg/kg/injection, schedule: Q01DX001 (ip), vehicle: saline
[11] = dose: 400.0 mg/kg/injection, schedule: Q01DX001 (ip), vehicle: saline
[12] = dose: 400.0 mg/kg/injection, schedule: Q01DX009 (ip), vehicle: saline
[13] = dose: 100.0 mg/kg/injection, schedule: Q01DX009 (ip), vehicle: saline
[14] = dose: 100.0 mg/kg/injection, schedule: Q04DX003 (ip), vehicle: saline
[15] = dose: 200.0 mg/kg/injection, schedule: Q01DX009 (ip), vehicle: saline
[16] = dose: 200.0 mg/kg/injection, schedule: Q04DX003 (ip), vehicle: saline
[17] = dose: 400.0 mg/kg/injection, schedule: Q04DX003 (ip), vehicle: saline
[18] = dose: 50.0 mg/kg/injection, schedule: Q01DX009 (ip), vehicle: saline

Measured: T/C

Cc1ccc(C(O)(c2ccc(C)cc2)C2C(c3ccccc3)N2C)cc1 (stereo unspecified)
inactive: [1] 98 % of control | [2] 96 % of control | [3] 102 % of control

O=[N+]([O-])c1ccc(S(=O)(=O)C2CCCCC2Cl)cc1 (stereo unspecified)
inactive: [4] 88 % of control | [5] 91 % of control | [6] 90 % of control

O=C(O)c1ccccc1C(=O)OC1CC2CCC1C2 (stereo unspecified)
inactive: [1] 100 % of control | [2] 94 % of control | [3] 98 % of control

CC(C)N1C(=O)N(C(C)C)C2(CCN(CC3COc4ccccc4O3)CC2)C1=O (stereo unspecified)
inactive: [1] 100 % of control | [2] 88 % of control | [3] 94 % of control

O=C1C(=O)c2ccccc2-c2ccccc21
inactive: dose: 50.0 mg/kg/injection, schedule: Q04DX003 (ip), vehicle: Klucel (hydroxypropylcellulose) (HPC) 98 % of control | [7] 97 % of control | [8] 98 % of control

c1ccc2cc(-c3cc4ccccc4s3)ccc2c1
inactive: [9] 106 % of control | dose: 100.0 mg/kg/injection, schedule: Q01DX009 (ip), vehicle: acetone 98 % of control | dose: 100.0 mg/kg/injection, schedule: Q04DX003 (ip), vehicle: acetone 100 % of control | [10] 103 % of control | dose: 200.0 mg/kg/injection, schedule: Q01DX009 (ip), vehicle: acetone 104 % of control | dose: 200.0 mg/kg/injection, schedule: Q04DX003 (ip), vehicle: acetone 98 % of control | dose: 264.0 mg/kg/injection, schedule: Q01DX009 (ip), vehicle: saline 110 % of control | [11] 104 % of control | [12] 115 % of control | dose: 400.0 mg/kg/injection, schedule: Q04DX003 (ip), vehicle: acetone 90 % of control

O=C(NN(c1ccc([N+](=O)[O-])cc1)c1ccc([N+](=O)[O-])cc1)c1ccccc1
inactive: dose: 50.0 mg/kg/injection, schedule: Q01DX009 (ip), vehicle: Klucel (hydroxypropylcellulose) (HPC) 103 % of control | [4] 100 % of control | [7] 94 % of control | [5] 102 % of control | [8] 93 % of control | [6] 102 % of control | dose: 400.0 mg/kg/injection, schedule: Q04DX003 (ip), vehicle: Klucel (hydroxypropylcellulose) (HPC) 94 % of control

CC(=O)CO
inactive: dose: 50.0 mg/kg/injection, schedule: Q01DX001 (ip), vehicle: carboxymethylcellulose (CMC) 98 % of control | dose: 100.0 mg/kg/injection, schedule: Q01DX001 (ip), vehicle: carboxymethylcellulose (CMC) 101 % of control | [13] 90 % of control | [14] 93 % of control | dose: 200.0 mg/kg/injection, schedule: Q01DX001 (ip), vehicle: carboxymethylcellulose (CMC) 101 % of control | [15] 97 % of control | [16] 96 % of control | dose: 400.0 mg/kg/injection, schedule: Q01DX001 (ip), vehicle: carboxymethylcellulose (CMC) 98 % of control | [12] 100 % of control | [17] 101 % of control

c1c[nH]cn1
inactive: [18] 93 % of control | [13] 101 % of control and 90 % of control | [14] 97 % of control | [15] 96 % of control and 90 % of control | [16] 97 % of control | [12] 103 % of control | [17] 94 % of control

Cc1ccc2cc3c(ccc4ccccc43)c3c2c1CC3
inactive: dose: 100.0 mg/kg/injection, schedule: Q04DX003 (ip), vehicle: saline with Tween-80 119 % of control | dose: 200.0 mg/kg/injection, schedule: Q04DX003 (ip), vehicle: saline with Tween-80 120 % of control | dose: 400.0 mg/kg/injection, schedule: Q04DX003 (ip), vehicle: saline with Tween-80 120 % of control

Cc1ccccc1N(C=O)c1ccccc1C
inactive: dose: 50.0 mg/kg/injection, schedule: Q01DX Z (ip), vehicle: methylcellulose (MC) 111 % of control | dose: 80.0 mg/kg/injection, schedule: Q01DX Z (ip), vehicle: methylcellulose (MC) 115 % of control | dose: 125.0 mg/kg/injection, schedule: Q01DX Z (ip), vehicle: methylcellulose (MC) 98 % of control and 114 % of control | dose: 180.0 mg/kg/injection, schedule: Q01DX Z (ip), vehicle: methylcellulose (MC) 115 % of control | dose: 240.0 mg/kg/injection, schedule: Q01DX Z (ip), vehicle: methylcellulose (MC) 97 % of control | dose: 250.0 mg/kg/injection, schedule: Q01DX Z (ip), vehicle: methylcellulose (MC) 93 % of control | dose: 300.0 mg/kg/injection, schedule: Q01DX Z (ip), vehicle: methylcellulose (MC) 109 % of control | dose: 360.0 mg/kg/injection, schedule: Q01DX Z (ip), vehicle: methylcellulose (MC) 100 % of control | dose: 500.0 mg/kg/injection, schedule: Q01DX Z (ip), vehicle: methylcellulose (MC) 106 % of control | dose: 1000.0 mg/kg/injection, schedule: Q01DX Z (ip), vehicle: methylcellulose (MC) 98 % of control

CC1(C)OC2C(C(N)=O)OC(n3cnc4c(N)ncnc43)C2O1 (stereo unspecified)
inactive: dose: 100.0 mg/kg/injection, schedule: Q01DX005 (ip), vehicle: saline 104 % of control | dose: 200.0 mg/kg/injection, schedule: Q01DX005 (ip), vehicle: saline 102 % of control

C1=C(N2CCOCC2)CCC(N2CCOCC2)=C1
inactive: [18] 108 % of control | [13] 95 % of control | [14] 98 % of control | [15] 95 % of control | [16] 95 % of control

CC1CN=C(c2ccc(NC(=O)c3ccc(C(=O)Nc4ccc(C5=NCC(C)CN5)cc4)cc3)cc2)NC1 (stereo unspecified)
inactive: dose: 0.12 mg/kg/injection, schedule: Q01DX015 (ip), vehicle: water 100 % of control | dose: 0.25 mg/kg/injection, schedule: Q01DX015 (ip), vehicle: water 102 % of control | dose: 0.5 mg/kg/injection, schedule: Q01DX015 (ip), vehicle: water 104 % of control | dose: 1.0 mg/kg/injection, schedule: Q01DX015 (ip), vehicle: water 104 % of control | dose: 2.0 mg/kg/injection, schedule: Q01DX015 (ip), vehicle: water 122 % of control | dose: 4.0 mg/kg/injection, schedule: Q01DX015 (ip), vehicle: water 114 % of control

CNN1CCOC1=O
inactive: dose: 100.0 mg/kg/injection, schedule: Q04DX002 (ip), vehicle: saline 100 % of control | dose: 200.0 mg/kg/injection, schedule: Q04DX002 (ip), vehicle: saline 100 % of control | dose: 400.0 mg/kg/injection, schedule: Q04DX002 (ip), vehicle: saline 104 % of control

CCc1ccccc1NC(=O)C(Cl)Cl
inactive: dose: 100.0 mg/kg/injection, schedule: Q04DX002 (ip), vehicle: Klucel (hydroxypropylcellulose) (HPC) 100 % of control | dose: 200.0 mg/kg/injection, schedule: Q04DX002 (ip), vehicle: Klucel (hydroxypropylcellulose) (HPC) 103 % of control | dose: 400.0 mg/kg/injection, schedule: Q04DX002 (ip), vehicle: Klucel (hydroxypropylcellulose) (HPC) 100 % of control

Cc1ccc(S(=O)(=O)N/N=C2\C(=O)C3CCC2C3Cl)cc1 (stereo unspecified)
inactive: dose: 75.0 mg/kg/injection, schedule: Q01DX001 (ip), vehicle: other 89 % of control | dose: 150.0 mg/kg/injection, schedule: Q01DX001 (ip), vehicle: other 92 % of control

Cc1ccc(S(=O)(=O)N2CCc3ccccc3C(=O)C2)cc1
inactive: [9] 97 % of control | [10] 94 % of control | [11] 94 % of control
